Data published in patent US20240124467A1, “FUSED PYRIMIDINE COMPOUNDS AS INHIBITORS OF MENIN-MLL INTERACTION” (Biomea Fusion, Inc., priority 2020, published 2024).
Read-outs that look alike come from different tables or passages of the source.

How the values were obtained:
Format in all cases: cell-based
MV4-11 = assay: Cell proliferation inhibition (CellTiter-Glo), MV4-11 cells; conditions: Homo sapiens, MV4-11 (MLL-AF4), Table 3
Outline: (§1)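 Leukemia lines in RPMI-1640/10% FBS at 37° C. were exposed in duplicate to seven compound concentrations (5.00×10^−6 to 6.86×10^−9 M), with 0.2% DMSO as 100% proliferation. At day 4 cells were diluted 1:4 in fresh medium containing compound. Viability was read by CellTiter-Glo luminescence at day 4 and day 7.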

U-937 = assay: Cell proliferation inhibition (CellTiter-Glo), U-937 cells; conditions: Homo sapiens, U-937 (MLL-wt), Table 3
Protocol: (§2) The present example evaluates the ability of compounds described herein, inhibitors of Menin/MLL interaction, to inhibit cell proliferation. The proliferation inhibitory effect was investigated in human MLL-leukemia cells selected on the bases of MLL fusion proteins and listed in the table below.
(§3) ATP is present in all metabolically active cells and is considered as a marker for cell viability and proliferation. The metabolic cell activity was determined using the CellTiter-Glo kit from Promega, an ATP monitoring system based on the production of luminescence by the reaction of ATP with added UltraGlo® recombinant luciferase (Kawano et al., 2016, PLOS One, 8:11(7):e0158888), according to the supplier's experimental recommendations. The assay is based on a 96 well plate format. All experiments were carried out in duplicate in one test occasion.
(§4) Test items were dissolved at 20 mM in DMSO with purity ≥99.9% (Sigma catalog no. D8418) and stored at −20° C. Cells were maintained in RPMI-1640 medium (Invitrogen catalog no. 618700) supplemented with 10% of Heat Inactivated FBS (Invitrogen catalog no. 10500) and 1% Pen-Strep (Invitrogen catalog no. 15140) and cultured at 37° C. in a humidified incubator with 5% CO2. Cell lines were grown in suspension and the cell density was maintained in a range of 5×10^4-1×10^6 viable cells/ml where possible. Cells were pelleted at 130 g×5 min.
(§5) Serial dilutions of compounds 1 to 3 in DMSO 100% were prepared starting from a 2.5 mM solutions (prepared by diluting 1:8 the 20 mM stock solution) to generate a 7 point concentration response curve (CRC). Seven concentrations of test compounds (e.g., 5.00×10^−6-1.67×10^−6-5.56×10^−7-1.85×10^−7-6.17×10^−8-2.06×10^−8-6.86×10^−9 M) were assessed in duplicate in an individual test occasion in parallel in the selected cell lines. KO-539 was used as a reference compound and tested in duplicate at seven similar concentrations. 100% of proliferation was represented by the untreated cells (0.2% DMSO).
(§6) Cell proliferation inhibition was monitored at both the following end points: Day 4 (T4) and Day 7 (T7). For the appropriate cell density during the exponential cell growth and re-supply with fresh compound solution at T4, cells were diluted (1:4) with fresh medium containing the compound concentration (1×).
(§7) For each plate to test, one 0.4 μL copy plate and four 0.3 μL copy plates were stamped into 96-well plates not treated for cell adhesion (Sarstedt—cat. no. 82.1581.001) by acoustic liquid handling (Echo) at a concentration which was 500 fold the final assay concentration. Stamped plates were stored at −20° C.
(§8) On Day 0, the day of the experiment cell line suspensions were counted by Cell Viability Analyser, Vi-CELL (Beckman Coulter AY15292), and diluted with fresh medium to obtain the following cell densities: K-562 500 c/ml, MOLM-13 1,000 c/ml, MV4-11 10,000 c/ml, OCI-AML-3 500 c/ml, and U-937 500-1,000 c/ml. 200 μL/well and 150 μL/well of cell suspension were added into the 0.4 μL/well and 0.3 μL/well compound plates, respectively. Cell plate containing 200 μL/well suspension were incubated at 37° C. in a humidified incubator with 5% CO2. From each well of the 150 μL/well cell assay plate, 100 μL were harvested and transferred into a 96-well Optiplate (Perkin Elmer, cat. no. 6005290). Cell viability was measured as described below.
(§9) On Day 4, 150p/well of fresh medium was added into a new 0.3 μL/well copy compound plates. From each well of the 200 μL/well cell assay plate, 100 μL was sampled for the cell viability measurement as described below. 50p was harvested and added to the 150p/well compound plate prepared as described in the first point to dilute 1:4 the cell suspension. The cell assay plate diluted and containing 200 μL/well suspension was incubated at 37° C. in a humidified incubator with 5% CO2.
(§10) On Day 4, 150p/well of fresh medium was added into a new 0.3 μL/well copy compound plates. […]

K-562 = assay: Cell proliferation inhibition (CellTiter-Glo), K-562 cells; conditions: Homo sapiens, K-562 (BCR-ABL), Table 3
Outline: as §1

MOLM-13 = assay: Cell proliferation inhibition (CellTiter-Glo), MOLM-13 cells; conditions: Homo sapiens, MOLM-13 (MLL-AF9), Table 3
Outline: as §1

OCI-AML3 = assay: Cell proliferation inhibition (CellTiter-Glo), OCI-AML3 cells; conditions: Homo sapiens
Protocol: as §2, §3, §4, §5, §6, §7, §8, §9, §10

[1] = 96 h, 4 d, read-out: MV4-11 IC50 μM 4 d
[2] = 168 h, 7 d, read-out: MV4-11 IC50 μM 7 d
[3] = 96 h, 4 d, read-out: U-937 IC50 μM 4 d
[4] = 168 h, 7 d, read-out: U-937 IC50 μM 7 d
[5] = K562, 96 h, 4 d, read-out: K-562 IC50 μM 4 d
[6] = K562, 168 h, 7 d, read-out: K-562 IC50 μM 7 d
[7] = 96 h, 4 d, read-out: MOLM13 μM 4 d
[8] = 168 h, 7 d, read-out: MOLM13 μM 7 d
[9] = OCI-AML-3, 96 h, 4 d, Table 3, read-out: OCI-AML3 IC50 μM 4 d
[10] = OCI-AML-3, 168 h, 7 d, Table 3, read-out: OCI-AML3 IC50 μM 7 d

Structure (SMILES) | IC50 (MV4-11; [1]) | IC50 (MV4-11; [2]) | IC50 (U-937; [3]) | IC50 (U-937; [4]) | IC50 (K-562; [5]) | IC50 (K-562; [6]) | IC50 (MOLM-13; [7]) | IC50 (MOLM-13; [8]) | IC50 (OCI-AML3; [9]) | IC50 (OCI-AML3; [10])
C=CC(=O)N(C)[C@@H]1CCCN(Cc2ccnc(C(=O)Nc3ccc(-c4cc5c(N6CCOCC6)ncnc5[nH]4)cc3)c2)C1 [Compound B0700-301, (R)-4-((3-(N-methylacrylamido)piperidin-1-yl)methyl)-N-(4-(4-morpholino-7H-pyrrolo[2,3-d]pyrimidin-6-yl)phenyl)picolinamide] | 0.085 µM | 0.069 µM | 0.105 µM | 0.026 µM | 0.263 µM | 0.191 µM | 56 nM | 44 nM | 0.066 µM | 0.028 µM
C=CC(=O)Nc1ccc(CC(=O)Nc2ccc(-c3cc4c(C)ncnc4[nH]3)cc2)cc1 [Compound B0700-313, N-(4-(2-((4-(4-methyl-7H-pyrrolo[2,3-d]pyrimidin-6-yl)phenyl)amino)-2-oxoethyl)phenyl)acrylamide] | > 5 µM | > 5 µM | > 5 µM | 1.26 µM | > 5 µM | 0.288 µM | > 5000 nM | 3310 nM | > 5 µM | 0.407 µM
C=CC(=O)N1CCN(CCc2ccnc(C(=O)Nc3ccc(-c4cc5c(N6CCOCC6)ncnc5[nH]4)cc3)c2)CC1 [Compound B0700-303, 4-(2-(4-acryloylpiperazin-1-yl)ethyl)-N-(4-(4-morpholino-7H-pyrrolo[2,3-d]pyrimidin-6-yl)phenyl)picolinamide] | 0.051 µM | 0.05 µM | 0.043 µM | 0.022 µM | 0.085 µM | 0.028 µM | 49 nM | 34 nM | 0.076 µM | 0.05 µM
C=CC(=O)N1CCCC(Nc2ccnc(C(=O)Nc3ccc(-c4cc5c(N6CCOCC6)ncnc5[nH]4)cc3)c2)C1 (centres unmarked) [Compound B0700-302, 4-((1-acryloylpiperidin-3-yl)amino)-N-(4-(4-morpholino-7H-pyrrolo[2,3-d]pyrimidin-6-yl)phenyl)picolinamide] | 0.098 µM | 0.089 µM | 0.072 µM | 0.037 µM | 0.17 µM | 0.138 µM | 63 nM | 50 nM | 0.043 µM | 0.044 µM
C=CC(=O)Nc1ccc(CC(=O)Nc2ccc(-c3cc4c(N5CCOCC5)ncnc4[nH]3)cc2)nc1 [Compound B0700-314, N-(6-(2-((4-(4-morpholino-7H-pyrrolo[2,3-d]pyrimidin-6-yl)phenyl)amino)-2-oxoethyl)pyridin-3-yl)acrylamide] | 0.145 µM | 0.129 µM | 0.288 µM | 0.158 µM | 0.55 µM | 0.468 µM | 191 nM | 178 nM | 0.145 µM | 0.095 µM
O=C(/C=C/CN1CC(F)C1)Nc1ccc(CC(=O)Nc2ccc(-c3cc4c(N5CCOCC5)ncnc4[nH]3)cc2)cc1 [Compound B0700-312, (E)-4-(3-fluoroazetidin-1-yl)-N-(4-(2-((4-(4-morpholino-7H-pyrrolo[2,3-d]pyrimidin-6-yl)phenyl)amino)-2-oxoethyl)phenyl)but-2-enamide] | 1.62 µM | 1 µM | > 5 µM | > 5 µM | > 5 µM | > 5 µM | 2340 nM | 537 nM | > 5 µM | 1.95 µM

Other lines, results leading:

IC50 (MV4-11; [1]) | IC50 (MV4-11; [2]) | IC50 (U-937; [3]) | IC50 (U-937; [4]) | IC50 (K-562; [5]) | IC50 (K-562; [6]) | IC50 (MOLM-13; [7]) | IC50 (MOLM-13; [8]) | IC50 (OCI-AML3; [9]) | IC50 (OCI-AML3; [10]) | Structure (SMILES)
0.047 µM | 0.034 µM | 0.347 µM | 0.065 µM | 0.676 µM | 0.129 µM | 55 nM | 30 nM | 0.251 µM | 0.115 µM | C=CC(=O)N1CC(N2CCC(CC(=O)Nc3ccc(-c4cc5c(N6CCOCC6)ncnc5[nH]4)cc3)CC2)C1 [Compound B0700-331, 2-(1-(1-acryloylazetidin-3-yl)piperidin-4-yl)-N-(4-(4-morpholino-7H-pyrrolo[2,3-d]pyrimidin-6-yl)phenyl)acetamide]
0.646 µM | 0.38 µM | 1.62 µM | 1.05 µM | 4.68 µM | 1 µM | 631 nM | 447 nM | 1.05 µM | 0.813 µM | C=CC(=O)N1CC(N2CCC(NC(=O)Nc3ccc(-c4cc5c(N6CCOCC6)ncnc5[nH]4)cc3)CC2)C1 [Compound B0700-330, 1-(1-(1-acryloylazetidin-3-yl)piperidin-4-yl)-3-(4-(4-morpholino-7H-pyrrolo[2,3-d]pyrimidin-6-yl)phenyl)urea]
0.38 µM | 0.151 µM | 1.2 µM | 0.457 µM | 1.86 µM | 1.66 µM | 324 nM | 316 nM | 0.955 µM | 0.24 µM | C=CC(=O)N1CC(N2CCC[C@H](NC(=O)Nc3ccc(-c4cc5c(N6CCOCC6)ncnc5[nH]4)cc3)C2)C1 [Compound B0700-332, (S)-1-(1-(1-acryloylazetidin-3-yl)piperidin-3-yl)-3-(4-(4-morpholino-7H-pyrrolo[2,3-d]pyrimidin-6-yl)phenyl)urea]
> 5 µM | > 5 µM | > 5 µM | > 5 µM | > 5 µM | > 5 µM | > 5000 nM | > 5000 nM | > 5 µM | > 5 µM | C=CC(=O)N[C@@H]1CCCN(Cc2ccnc(C(=O)NC3CCN(c4nc5c(N6CCOCC6)ncnc5[nH]4)CC3)c2)C1 [Compound B0700-308, (R)-4-((3-acrylamidopiperidin-1-yl)methyl)-N-(1-(6-morpholino-9H-purin-8-yl)piperidin-4-yl)picolinamide]
> 5 µM | > 5 µM | > 5 µM | > 5 µM | > 5 µM | > 5 µM | > 5000 nM | > 5000 nM | > 5 µM | > 5 µM | C=CC(=O)Nc1ccc(CC(=O)NC2CCN(c3nc4c(N5CCOCC5)ncnc4[nH]3)CC2)cc1 [Compound B0700-315, N-(4-(2-((1-(6-morpholino-9H-purin-8-yl)piperidin-4-yl)amino)-2-oxoethyl)phenyl)acrylamide]
